According to EP0238178B1, “Novel derivatives of erythromycylamine” (ELI LILLY AND COMPANY, priority 1986, dated 1987):
In brackets after ≈: the same amount, converted by molar mass. Like-named read-outs stand apart in the source and are kept apart here.

Tests used:
[1] = test system: Staphylococcus aureus X1.1; experiment: MIC, standard agar-dilution assay; assay type: cell-based
[2] = test system: Staphylococcus aureus S13E; experiment: MIC, standard agar-dilution assay; assay type: cell-based
[3] = test system: Staphylococcus epidermidis 222; experiment: MIC, standard agar-dilution assay; assay type: cell-based
[4] = test system: Streptococcus pyogenes C203; experiment: MIC, standard agar-dilution assay; assay type: cell-based
[5] = test system: Streptococcus pneumoniae Park I; experiment: MIC, standard agar-dilution assay; assay type: cell-based
[6] = test system: Streptococcus sp. group D X66; experiment: MIC, standard agar-dilution assay; assay type: cell-based; conditions: Streptococcus sp. group D X66
[7] = test system: Streptococcus sp. group D 2041; experiment: MIC, standard agar-dilution assay; assay type: cell-based
[8] = test system: Haemophilus influenzae C.L.; experiment: MIC, standard agar-dilution assay; assay type: cell-based; conditions: Ampicillin-sensitive strain
Escherichia coli EC14 = experiment: MIC, standard agar-dilution assay; assay type: cell-based
[9] = test system: Klebsiella pneumoniae X68; experiment: MIC, standard agar-dilution assay; assay type: cell-based; conditions: read-out: MIC
Staphylococcus aureus = experiment: Experimental bacterial infection in mice, ED50; assay type: in vivo; conditions: two doses, dose protecting 50% of animals; for ED50: Staphylococcus aureus
Protocol: (§1) The new derivatives of this invention have also shown in vivo antimicrobial activity against experimental bacterial infections. When two doses of test compound were administered to mice in experimental infections, the activity observed was measured as an EDso value [effective dose in mg/kg to protect 50% of the test animals: see Warren Wick, et al., J. Bacteriol. 81, 233-235 (1961)].

Streptococcus pneumoniae = experiment: Experimental bacterial infection in mice, ED50; assay type: in vivo; conditions: two doses, dose protecting 50% of animals; for ED50: Streptococcus pneumoniae
Protocol: as §1

Streptococcus pyogenes = experiment: Experimental bacterial infection in mice, ED50; assay type: in vivo; conditions: two doses, dose protecting 50% of animals; for ED50: Streptococcus pyogenes
Protocol: as §1

[10] = test system: Haemophilus influenzae 76; experiment: MIC, standard agar-dilution assay; assay type: cell-based; conditions: Haemophilus influenzae 76, Ampicillin-resistant strain
[11] = sc, subcutaneous, read-out: Subcutaneous ED50

Compound	MIC ([1]; read-out: MIC) [µg/mL]	MIC [2] [µg/mL]	MIC ([3]; read-out: MIC) [µg/mL]	MIC ([4]; read-out: MIC) [µg/mL]	MIC ([5]; read-out: MIC) [µg/mL]	MIC ([6]; read-out: MIC) [µg/mL]	MIC ([7]; read-out: MIC) [µg/mL]	MIC ([8]; read-out: MIC) [µg/mL]	MIC (Escherichia coli EC14; read-out: MIC) [µg/mL]	MIC [9] [µg/mL]	ED50 (Staphylococcus aureus; po, read-out: Oral ED50) [mg/kg]	ED50 (Streptococcus pneumoniae; po, read-out: Oral ED50) [mg/kg]	ED50 (Streptococcus pyogenes; po, read-out: Oral ED50) [mg/kg]	MIC ([10]; read-out: MIC) [µg/mL]	also measured
CC[C@H]1OC(=O)[C@H](C)[C@@H](O[C@H]2C[C@@](C)(OC)[C@@H](O)[C@H](C)O2)[C@H](C)[C@@H](O[C@@H]2O[C@H](C)C[C@H](N(C)C)[C@H]2O)[C@](C)(O)C[C@@H](C)[C@H](NCCCCCO)[C@H](C)[C@@H](O)[C@]1(C)O [Compound 21, 9-Deoxo-9-[(5-hydroxypentyl)amino]erythromycin]	0.5 (≈ 0.609 µM)	0.25 (≈ 0.304 µM)	0.5 (≈ 0.609 µM)	< 0.008	< 0.008	0.25 (≈ 0.304 µM)	4 (≈ 4.87 µM)	2 (≈ 2.44 µM)	32 (≈ 39 µM)	128 (≈ 156 µM)	> 50	> 50	42.6		
CCN[C@@H]1[C@H](C)[C@@H](O)[C@](C)(O)[C@@H](CC)OC(=O)[C@H](C)[C@@H](O[C@H]2C[C@@](C)(OC)[C@@H](O)[C@H](C)O2)[C@H](C)[C@@H](O[C@@H]2O[C@H](C)C[C@H](N(C)C)[C@H]2O)[C@](C)(O)C[C@H]1C [Compound 2, (9S)-9-Deoxo-9-(ethylamino)erythromycin]	1 (≈ 1.31 µM)	2 (≈ 2.62 µM)	1 (≈ 1.31 µM)	0.125 (≈ 0.164 µM)	0.03 (≈ 0.0393 µM)	0.25 (≈ 0.328 µM)	4 (≈ 5.24 µM)	1 (≈ 1.31 µM)	32 (≈ 41.9 µM)	64 (≈ 83.9 µM)	23.4	13.4	12.5	4 (≈ 5.24 µM)	
CC[C@H]1OC(=O)[C@H](C)[C@@H](O[C@H]2C[C@@](C)(OC)[C@@H](O)[C@H](C)O2)[C@H](C)[C@@H](O[C@@H]2O[C@H](C)C[C@H](N(C)C)[C@H]2O)[C@](C)(O)C[C@@H](C)[C@H](NCCC(C)C)[C@H](C)[C@@H](O)[C@]1(C)O [Compound 11, 9-Deoxo-9-[(3-methylbutyl)amino]erythromycin]	1 (≈ 1.24 µM)	0.5 (≈ 0.621 µM)	0.25 (≈ 0.311 µM)	0.06 (≈ 0.0745 µM)	0.03 (≈ 0.0373 µM)	0.125 (≈ 0.155 µM)	1 (≈ 1.24 µM)	1 (≈ 1.24 µM)	128 (≈ 159 µM)	128 (≈ 159 µM)	12.5	10.8	8.8	1 (≈ 1.24 µM)	
CCCCCN[C@@H]1[C@H](C)[C@@H](O)[C@](C)(O)[C@@H](CC)OC(=O)[C@H](C)[C@@H](O[C@H]2C[C@@](C)(OC)[C@@H](O)[C@H](C)O2)[C@H](C)[C@@H](O[C@@H]2O[C@H](C)C[C@H](N(C)C)[C@H]2O)[C@](C)(O)C[C@H]1C [Compound 5, 9-Deoxo-9-(n-pentylamino)erythromycin]	0.5 (≈ 0.621 µM)	1 (≈ 1.24 µM)	0.5 (≈ 0.621 µM)	0.06 (≈ 0.0745 µM)	0.015 (≈ 0.0186 µM)	0.125 (≈ 0.155 µM)	2 (≈ 2.48 µM)	1 (≈ 1.24 µM)	128 (≈ 159 µM)	128 (≈ 159 µM)	25	13.6	8.8	2 (≈ 2.48 µM)	
CCCN[C@@H]1[C@H](C)[C@@H](O)[C@](C)(O)[C@@H](CC)OC(=O)[C@H](C)[C@@H](O[C@H]2C[C@@](C)(OC)[C@@H](O)[C@H](C)O2)[C@H](C)[C@@H](O[C@@H]2O[C@H](C)C[C@H](N(C)C)[C@H]2O)[C@](C)(O)C[C@H]1C [Compound 3, 9-Deoxo-9-(n-propylamino)erythromycin]	1 (≈ 1.29 µM)	0.25 (≈ 0.322 µM)	0.5 (≈ 0.643 µM)	0.03 (≈ 0.0386 µM)	0.015 (≈ 0.0193 µM)	0.125 (≈ 0.161 µM)	4 (≈ 5.15 µM)	1 (≈ 1.29 µM)	32 (≈ 41.2 µM)	128 (≈ 165 µM)	11.8	7.2	3.3	2 (≈ 2.57 µM)	ED50 (Staphylococcus aureus; [11]): 6.11 mg/kg; Oral ED50 (Staphylococcus aureus): 12.6 mg/kg; ED50 (Streptococcus pneumoniae; [11]): 1.77 mg/kg; Oral ED50 (Streptococcus pneumoniae): 6.3 mg/kg; ED50 (Streptococcus pyogenes; [11]): 1.67 mg/kg; Oral ED50 (Streptococcus pyogenes): 6.1 mg/kg
Endo- and Exo-9-Deoxo-9-[(bicyclo[2.2.1]hept-2-en-5-yl-methyl)amino]erythromycin [Compound 19]		2													MIC [1]: 2 µg/mL; MIC [3]: 1 µg/mL; MIC [4]: 0.25 µg/mL; MIC [5]: 0.015 µg/mL; MIC [6]: 1 µg/mL; MIC [7]: 8 µg/mL; MIC [8]: 8 µg/mL; MIC [10]: 8 µg/mL; MIC (Escherichia coli EC14): 64 µg/mL; Oral ED50 (Staphylococcus aureus): >50 mg/kg; Oral ED50 (Streptococcus pneumoniae): 25.0 mg/kg; Oral ED50 (Streptococcus pyogenes): 16.6 mg/kg
CC[C@H]1OC(=O)[C@H](C)[C@@H](O[C@H]2C[C@@](C)(OC)[C@@H](O)[C@H](C)O2)[C@H](C)[C@@H](O[C@@H]2O[C@H](C)C[C@H](N(C)C)[C@H]2O)[C@](C)(O)C[C@@H](C)[C@H](NCCCOC)[C@H](C)[C@@H](O)[C@]1(C)O [Compound 23, (9S)-9-Deoxo-9-[(3-methoxypropyl)amino]erythromycin]	2 (≈ 2.48 µM)	2 (≈ 2.48 µM)	0.5 (≈ 0.62 µM)	0.125 (≈ 0.155 µM)	0.03 (≈ 0.0372 µM)	0.25 (≈ 0.31 µM)	8 (≈ 9.91 µM)	4 (≈ 4.96 µM)	64 (≈ 79.3 µM)		16.4	15.9	13.5	4 (≈ 4.96 µM)	ED50 (Staphylococcus aureus; [11]): 3.73 mg/kg; ED50 (Streptococcus pneumoniae; [11]): 8.3 mg/kg; ED50 (Streptococcus pyogenes; [11]): 2.1 mg/kg
CC[C@H]1OC(=O)[C@H](C)[C@@H](O[C@H]2C[C@@](C)(OC)[C@@H](O)[C@H](C)O2)[C@H](C)[C@@H](O[C@@H]2O[C@H](C)C[C@H](N(C)C)[C@H]2O)[C@](C)(O)C[C@@H](C)[C@H](NCC(C)(C)CO)[C@H](C)[C@@H](O)[C@]1(C)O [Compound 22, 9-Deoxo-9-[(3-hydroxy-2,2-dimethylpropyl)amino]erythromycin]	1 (≈ 1.22 µM)	1 (≈ 1.22 µM)	1 (≈ 1.22 µM)	0.03 (≈ 0.0365 µM)	0.015 (≈ 0.0183 µM)	0.25 (≈ 0.304 µM)	4 (≈ 4.87 µM)	1 (≈ 1.22 µM)	32 (≈ 39 µM)	64 (≈ 77.9 µM)	> 50	46.1	19.8	0.25 (≈ 0.304 µM)	
CC[C@H]1OC(=O)[C@H](C)[C@@H](O[C@H]2C[C@@](C)(OC)[C@@H](O)[C@H](C)O2)[C@H](C)[C@@H](O[C@@H]2O[C@H](C)C[C@H](N(C)C)[C@H]2O)[C@](C)(O)C[C@@H](C)[C@H](NCC2CC=CCC2)[C@H](C)[C@@H](O)[C@]1(C)O (some centres unmarked) [Compound 15, 9-Deoxo-9-[(1-cyclohex-4-enylmethyl)amino]erythromycin]	1 (≈ 1.21 µM)	1 (≈ 1.21 µM)	0.25 (≈ 0.302 µM)	0.06 (≈ 0.0724 µM)	< 0.008	0.25 (≈ 0.302 µM)	8 (≈ 9.65 µM)	4 (≈ 4.82 µM)	64 (≈ 77.2 µM)		20	8.7	14.9	2 (≈ 2.41 µM)	
